Source: PubChem BioAssay (NCI)
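Exposure lasted 48 hours, with cells grown in 96-well plates and compounds tested at five concentrations. Here, GI50 denotes the concentration required for 50% inhibition of growth. At the TGI there is no net growth.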

Key:
Experiment in all cases: NCI tumour cell line growth inhibition, 48 h
SF-295 CNS = tested on: SF-295 CNS
SF-539 CNS = tested on: SF-539 CNS
UO-31 renal = tested on: UO-31 renal
HCT-116 colon = tested on: HCT-116 colon
HT29 colon = tested on: HT29 colon
OVCAR-3 ovarian = tested on: OVCAR-3 ovarian
MDA-MB-435 = tested on: MDA-MB-435
SNB-75 CNS = tested on: SNB-75 CNS
U251 CNS = tested on: U251 CNS
SN12C renal = tested on: SN12C renal
786-0 renal = tested on: 786-0 renal
BT-549 breast = tested on: BT-549 breast
OVCAR-5 ovarian = tested on: OVCAR-5 ovarian
T-47D breast = tested on: T-47D breast
NCI-H460 lung = tested on: NCI-H460 lung
OVCAR-8 ovarian = tested on: OVCAR-8 ovarian
COLO 205 colon = tested on: COLO 205 colon
SK-MEL-5 melanoma = tested on: SK-MEL-5 melanoma
UACC-257 melanoma = tested on: UACC-257 melanoma
SK-MEL-28 melanoma = tested on: SK-MEL-28 melanoma
SW-620 colon = tested on: SW-620 colon
RXF 393 renal = tested on: RXF 393 renal
A498 renal = tested on: A498 renal
NCI/ADR-RES ovarian = tested on: NCI/ADR-RES ovarian
M14 melanoma = tested on: M14 melanoma
HS 578T breast = tested on: HS 578T breast
SK-OV-3 ovarian = tested on: SK-OV-3 ovarian
ACHN renal = tested on: ACHN renal
OVCAR-4 ovarian = tested on: OVCAR-4 ovarian
MOLT-4 leukemia = tested on: MOLT-4 leukemia
CAKI-1 renal = tested on: CAKI-1 renal
HCC-2998 colon = tested on: HCC-2998 colon
DU-145 prostate = tested on: DU-145 prostate
SNB-19 CNS = tested on: SNB-19 CNS
MCF7 breast = tested on: MCF7 breast
HCT-15 colon = tested on: HCT-15 colon
LOX IMVI melanoma = tested on: LOX IMVI melanoma
NCI-H226 lung = tested on: NCI-H226 lung
SF-268 CNS = tested on: SF-268 CNS
K-562 leukemia = tested on: K-562 leukemia
MALME-3M melanoma = tested on: MALME-3M melanoma
NCI-H23 lung = tested on: NCI-H23 lung
HOP-62 NSCLC = tested on: HOP-62 NSCLC
UACC-62 melanoma = tested on: UACC-62 melanoma
SK-MEL-2 melanoma = tested on: SK-MEL-2 melanoma
CCRF-CEM leukemia = tested on: CCRF-CEM leukemia
HOP-92 NSCLC = tested on: HOP-92 NSCLC
HL-60(TB) leukemia = tested on: HL-60(TB) leukemia
PC-3 prostate = tested on: PC-3 prostate
NCI-H522 lung = tested on: NCI-H522 lung
EKVX NSCLC = tested on: EKVX NSCLC
IGROV1 ovarian = tested on: IGROV1 ovarian
TK-10 renal = tested on: TK-10 renal
A549 NSCLC = tested on: A549 NSCLC
MDA-MB-231 breast = tested on: MDA-MB-231 breast
KM12 colon = tested on: KM12 colon

Cc1nccn1CC1CCc2c(c3ccccc3n2C)C1=O (stereo not given)
GI50 (SF-295 CNS): 39.1 µM
TGI (SF-295 CNS): 60.9 µM
GI50 (SF-539 CNS): 73.7 µM
GI50 (UO-31 renal): 78.5 µM
GI50 (HCT-116 colon): 65.6 µM
GI50 (HT29 colon): 27.9 µM
TGI (HT29 colon): 49.2 µM
GI50 (OVCAR-3 ovarian): 90.3 µM
GI50 (MDA-MB-435): 90.2 µM
GI50 (SNB-75 CNS): 56.5 µM
GI50 (U251 CNS): 81 µM
GI50 (SN12C renal): 87.9 µM
GI50 (786-0 renal): 78.8 µM
GI50 (BT-549 breast): 77.3 µM
GI50 (OVCAR-5 ovarian): 95.3 µM
GI50 (T-47D breast): 71.1 µM
GI50 (NCI-H460 lung): 45.7 µM
TGI (NCI-H460 lung): 68.1 µM
GI50 (OVCAR-8 ovarian): 49.8 µM
GI50 (COLO 205 colon): 78.7 µM
GI50 (SK-MEL-5 melanoma): 66.8 µM
GI50 (UACC-257 melanoma): 42.3 µM
TGI (UACC-257 melanoma): 64.3 µM

CC1(C)CC[C@]2(CO)CC[C@]3(C)C(=CC[C@@H]4[C@@]5(C)CCNCC(C)(C)[C@@H]5CC[C@]43C)[C@@H]2C1
GI50 (SF-295 CNS): 1.93 µM
TGI (SF-295 CNS): 3.97 µM
GI50 (SK-MEL-28 melanoma): 2.13 µM
TGI (SK-MEL-28 melanoma): 5.39 µM
GI50 (SW-620 colon): 1.97 µM
TGI (SW-620 colon): 4.41 µM
GI50 (RXF 393 renal): 1.95 µM
TGI (RXF 393 renal): 4.83 µM
GI50 (A498 renal): 12.5 µM
TGI (A498 renal): 25.1 µM
GI50 (SF-539 CNS): 10.6 µM
TGI (SF-539 CNS): 23.1 µM
GI50 (UO-31 renal): 5.33 µM
TGI (UO-31 renal): 21.2 µM
GI50 (NCI/ADR-RES ovarian): 9.4 µM
TGI (NCI/ADR-RES ovarian): 24.9 µM
GI50 (HCT-116 colon): 3.13 µM
TGI (HCT-116 colon): 12.4 µM
GI50 (M14 melanoma): 2.05 µM
TGI (M14 melanoma): 4.14 µM
GI50 (HT29 colon): 2.69 µM
TGI (HT29 colon): 9.4 µM
GI50 (OVCAR-3 ovarian): 6.68 µM
TGI (OVCAR-3 ovarian): 27.7 µM
GI50 (MDA-MB-435): 3.01 µM
TGI (MDA-MB-435): 8.9 µM
GI50 (HS 578T breast): 4.88 µM
TGI (HS 578T breast): 22.1 µM
GI50 (SK-OV-3 ovarian): 13.5 µM
TGI (SK-OV-3 ovarian): 26.8 µM
GI50 (ACHN renal): 4.91 µM
TGI (ACHN renal): 16.6 µM
GI50 (SNB-75 CNS): 10.1 µM
TGI (SNB-75 CNS): 23 µM
GI50 (OVCAR-4 ovarian): 7.66 µM
TGI (OVCAR-4 ovarian): 24 µM
GI50 (MOLT-4 leukemia): 4.41 µM
TGI (MOLT-4 leukemia): 18.7 µM
GI50 (CAKI-1 renal): 3.64 µM
TGI (CAKI-1 renal): 11.9 µM
GI50 (HCC-2998 colon): 1.89 µM
TGI (HCC-2998 colon): 4.07 µM
GI50 (U251 CNS): 3.53 µM
TGI (U251 CNS): 13.5 µM
GI50 (DU-145 prostate): 6.93 µM
TGI (DU-145 prostate): 21 µM
GI50 (SN12C renal): 4.08 µM
TGI (SN12C renal): 16.9 µM
GI50 (SNB-19 CNS): 12.8 µM
TGI (SNB-19 CNS): 26.8 µM
GI50 (MCF7 breast): 3.07 µM
TGI (MCF7 breast): 13.3 µM
GI50 (HCT-15 colon): 2.16 µM
TGI (HCT-15 colon): 6.26 µM
GI50 (LOX IMVI melanoma): 2.45 µM
TGI (LOX IMVI melanoma): 5.52 µM
GI50 (NCI-H226 lung): 16.8 µM
TGI (NCI-H226 lung): 35.5 µM
GI50 (786-0 renal): 3.8 µM
TGI (786-0 renal): 15 µM
GI50 (BT-549 breast): 4.79 µM
TGI (BT-549 breast): 18.3 µM
GI50 (SF-268 CNS): 8.98 µM
TGI (SF-268 CNS): 25.4 µM
GI50 (OVCAR-5 ovarian): 4.94 µM
TGI (OVCAR-5 ovarian): 17.6 µM
GI50 (K-562 leukemia): 2.6 µM
TGI (K-562 leukemia): 16.5 µM
GI50 (T-47D breast): 2.42 µM
TGI (T-47D breast): 11.2 µM
GI50 (MALME-3M melanoma): 1.69 µM
TGI (MALME-3M melanoma): 3.71 µM
GI50 (NCI-H23 lung): 12.5 µM
TGI (NCI-H23 lung): 26.9 µM
GI50 (HOP-62 NSCLC): 3.65 µM
TGI (HOP-62 NSCLC): 15.3 µM
GI50 (NCI-H460 lung): 2.08 µM
TGI (NCI-H460 lung): 4.82 µM
GI50 (UACC-62 melanoma): 2.77 µM
TGI (UACC-62 melanoma): 8.14 µM
GI50 (SK-MEL-2 melanoma): 2.32 µM
TGI (SK-MEL-2 melanoma): 5.57 µM
GI50 (OVCAR-8 ovarian): 4.77 µM
TGI (OVCAR-8 ovarian): 24.8 µM
GI50 (CCRF-CEM leukemia): 5.47 µM
TGI (CCRF-CEM leukemia): 23.1 µM
GI50 (HOP-92 NSCLC): 1.4 µM
TGI (HOP-92 NSCLC): 4.14 µM
GI50 (HL-60(TB) leukemia): 2.45 µM
TGI (HL-60(TB) leukemia): 7.34 µM
GI50 (PC-3 prostate): 4.32 µM
TGI (PC-3 prostate): 18.3 µM
GI50 (NCI-H522 lung): 2.62 µM
TGI (NCI-H522 lung): 7.09 µM
GI50 (COLO 205 colon): 1.9 µM
TGI (COLO 205 colon): 4 µM
GI50 (EKVX NSCLC): 9.55 µM
TGI (EKVX NSCLC): 23.2 µM
GI50 (IGROV1 ovarian): 6.83 µM
TGI (IGROV1 ovarian): 21 µM
GI50 (SK-MEL-5 melanoma): 1.86 µM
TGI (SK-MEL-5 melanoma): 3.64 µM
GI50 (TK-10 renal): 10.3 µM
TGI (TK-10 renal): 22.6 µM
GI50 (A549 NSCLC): 8.23 µM
TGI (A549 NSCLC): 22.7 µM
GI50 (MDA-MB-231 breast): 3.49 µM
TGI (MDA-MB-231 breast): 11.6 µM
GI50 (KM12 colon): 3.32 µM
TGI (KM12 colon): 12.2 µM
GI50 (UACC-257 melanoma): 2.33 µM
TGI (UACC-257 melanoma): 5.79 µM
